# Assay results from publication PMC7339578, “Multiple circulating alkaloids and saponins from intravenous Kang-Ai injection inhibit human cytochrome P450 and UDP-glucuronosyltransferase isozymes: potential drug–drug interactions” (Chinese Medicine, 2020).
# Where “and” joins values, the source holds several entries; their conditions need not be identical. Identical values can stand only once. Like-named read-outs stand apart in the source and are kept apart here.
# How the values were obtained:
# CYP2C19 = CYP2C19 (Homo sapiens, UniProt P33261); assay: Inhibition of recombinant CYP2C19 (probe mephenytoin); format: in vitro ADME
# Description: (§1) In this study, phenacetin (100 μM), coumarin (100 μM), bupropion (100 μM), paclitaxel (60 μM), tolbutamide (200 μM), mephenytoin (100 μM), chlorzoxazone (200 μM) and nifedipine (40 μM) have been used as the probe substrates for CYP1A2, 2A6, 2B6, 2C8, 2C9, 2C19, 2E1 and 3A4, respectively.
# P-gp = test system: P-gp; design: method as in PMID 24380838; conditions: cited from earlier work; for inhibition of P-gp: in vitro and in vivo
# CYP2B6 = molecular target: T1, CYP2B6 (Homo sapiens, UniProt P20813); assay: Inhibition of recombinant CYP2B6 (probe bupropion); format: in vitro ADME
# T1 sequence (P20813 1-491): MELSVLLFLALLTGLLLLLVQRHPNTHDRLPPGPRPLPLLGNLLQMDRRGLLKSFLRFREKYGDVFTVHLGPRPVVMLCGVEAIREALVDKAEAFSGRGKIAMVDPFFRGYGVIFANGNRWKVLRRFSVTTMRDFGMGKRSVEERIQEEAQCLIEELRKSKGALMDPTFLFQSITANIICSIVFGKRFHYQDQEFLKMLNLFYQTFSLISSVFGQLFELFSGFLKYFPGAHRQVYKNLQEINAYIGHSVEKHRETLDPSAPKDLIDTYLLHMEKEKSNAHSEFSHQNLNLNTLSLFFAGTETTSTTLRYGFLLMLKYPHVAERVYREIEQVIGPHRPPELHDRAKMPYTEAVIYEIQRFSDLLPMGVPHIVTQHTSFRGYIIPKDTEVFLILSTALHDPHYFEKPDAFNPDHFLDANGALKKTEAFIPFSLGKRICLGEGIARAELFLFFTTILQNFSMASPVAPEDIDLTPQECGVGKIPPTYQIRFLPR
# Description: as §1
# [1] = Biliary (hepatobiliary) excretion in rats after a 30-min infusion of Kang-Ai injection; format: in vivo, Sprague–Dawley rats; conditions: for fe-B,0–12h (fraction of dose excreted into bile): rat bile 0–12 h; for fe-B,0–12h (fraction of dose excreted into bile) / detection in bile: Kang-Ai injection 6 mL/kg iv; for detection in bile: rat bile
# Method in brief: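 Urine collected in metabolic cages at 0–4, 4–8, 8–12 h and bile at 0–3, 3–6, 6–9, 9–12 h after infusion start, weighed and frozen at −80 °C. Non-compartmental analysis; CLR and CLB as cumulative urinary or biliary amount divided by plasma AUC0-∞, fe-U and fe-B as cumulative amount/dose; mean ± SD (n = 3).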
# [2] = design: method as in PMID 16500065; conditions: intravenous infusion of 600 mg oxymatrine, healthy male volunteers; cited from earlier work
# [3] = design: method as in PMID 26586934; conditions: pooled HLM; read-out: Km (metabolism to matrine); cited from earlier work
# [4] = design: method as in PMID 26586934; conditions: HIM; read-out: Km (metabolism to matrine); cited from earlier work
# [5] = test system: SW-620, BGC823, A375 cells; design: method as in PMID 31283981; conditions: cited from earlier work
# CYP3A4 = test system: CYP3A4; design: method as in PMID 26586934; conditions: CYP3A4 isozyme; read-out: Km (metabolism to matrine); cited from earlier work
# [6] = test system: HepG2, MCF-7, HeLa, A549 cells; design: method as in PMID 31283981; conditions: cited from earlier work
# [7] = design: method as in earlier work; conditions: rat plasma; oxymatrine 30 mg/kg intravenously; cited from earlier work
# NTCP = test system: NTCP; design: method as in PMID 30978651; conditions: cited from earlier work
# CYP and UGT enzymes = assay: Inhibition of the panel of eight CYP and three UGT isozymes (statements over all enzymes); format: in vitro ADME, human; conditions: compound 100 μM
# Description: After centrifugation (13,800g, 10 min), the supernatant (8 μL) was obtained for determination by UHPLC system.
# as §1
# Similarly, β-estradiol (60 μM), propofol (40 μM) and 4-MU (350 μM) were typically used as the substrates for UGT1A1, 1A9 and 2B7, respectively. After optimization of incubation conditions (Additional file 1: Fig. S2), the protein concentrations for UGT1A1, 1A9, and 2B7 were 0.125, 0.05, and 0.05 mg/mL, respectively.
# [8] = recombinant isozyme, mean ± SD of triplicate, unit not given (IC50 classes in μM), read-out: IC50 towards CYP2C19
# [9] = recombinant isozyme, mean ± SD of triplicate, unit not given (IC50 classes in μM), read-out: IC50 towards CYP2B6
# Chain of CYP2C19 (P33261 whole entry): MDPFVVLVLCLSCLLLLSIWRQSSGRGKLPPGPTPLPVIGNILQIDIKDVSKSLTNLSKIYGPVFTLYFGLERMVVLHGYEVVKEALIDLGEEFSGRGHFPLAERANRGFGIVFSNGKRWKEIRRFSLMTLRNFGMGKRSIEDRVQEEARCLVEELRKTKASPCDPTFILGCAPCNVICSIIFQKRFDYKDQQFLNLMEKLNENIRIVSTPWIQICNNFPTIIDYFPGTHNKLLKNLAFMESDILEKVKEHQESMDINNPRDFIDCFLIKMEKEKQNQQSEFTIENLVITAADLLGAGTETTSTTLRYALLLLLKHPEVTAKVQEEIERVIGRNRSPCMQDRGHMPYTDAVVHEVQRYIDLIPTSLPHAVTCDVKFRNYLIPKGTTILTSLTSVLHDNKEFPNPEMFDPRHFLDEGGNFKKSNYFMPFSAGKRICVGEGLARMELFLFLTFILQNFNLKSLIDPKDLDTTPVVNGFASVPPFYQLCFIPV
smiles,measurement,setting,value
"O=C1CCC[C@@H]2[C@H]3CCCN4CCC[C@@H](CN12)[C@@H]34 [Compound A1, Matrine]",IC50,CYP2C19,> 100 µM
same,inhibition of P-gp,P-gp,did not demonstrate the inhibition of P-gp
same,IC50,CYP2B6,> 100 µM
same,"fe-B,0–12h (fraction of dose excreted into bile)",[1],36.55% and 36.55 ± 4.24%
"O=C1CCC[C@@H]2[C@H]3CCC[N+]4([O-])CCC[C@@H](CN12)[C@@H]34 (stereo partly drawn) [Compound A3, Oxymatrine]",IC50,CYP2C19,> 100 µM
same,inhibition of P-gp,P-gp,did not demonstrate the inhibition of P-gp
same,fraction of oxymatrine reduced to matrine,[2],about 19.9%
same,IC50,"CYP2B6; IC50 towards CYP2B6, recombinant isozyme, mean ± SD of triplicate, unit not given (IC50 classes in μM)",> 100 µM
same,Km,[3],221 µM
same,Km,[4],150 µM
same,effective concentrations to inhibit tumor cell viability,[5],0.10 to 40.00 µmol/L
same,Km,CYP3A4,341 µM
same,CLB (hepatobiliary clearance),"[1]; male, Sprague-Dawley, rat, in vivo, iv",31.95 ± 4.76 mL/h
same,reported effective concentrations (IC50 or EC50 values),[6],473.48 to 3787.84 µM
same,AUC0–12h,[7],16234.27 ng·h/mL
same,CL,[7],3.10 L/h
same,Cmax,[7],32847.57 ng/mL
same,t1/2,[7],34.2 min
"CC(C)(O)[C@@H]1CC[C@](C)([C@H]2[C@@H](O)C[C@@]3(C)[C@@H]4C[C@H](O[C@@H]5O[C@H](CO)[C@@H](O)[C@H](O)[C@H]5O)[C@H]5C(C)(C)[C@@H](O[C@@H]6OC[C@@H](O)[C@H](O)[C@H]6O)CC[C@@]56C[C@@]46CC[C@]23C)O1 [Compound B2, Astragaloside IV]",IC50,CYP2C19; [8],> 100 µM
same,inhibition activity,"P-gp; MDR1-MDCKII cells, 100 μM",8.22%
same,IC50,CYP2B6; [9],> 100 µM
"CC(C)=CCC[C@](C)(O[C@@H]1O[C@H](CO)[C@@H](O)[C@H](O)[C@H]1O)[C@H]1CC[C@]2(C)[C@@H]1[C@H](O)C[C@@H]1[C@@]3(C)CC[C@H](O)C(C)(C)[C@@H]3[C@@H](O[C@@H]3O[C@H](CO)[C@@H](O)[C@H](O)[C@H]3O)C[C@]12C [Compound C6, Ginsenoside Rg1]",IC50,CYP2C19; [8],> 100 µM
same,IC50,CYP2B6; [9],> 100 µM
same,"fe-B,0–12h (fraction of dose excreted into bile)",[1],20.71 ± 3.62%
same,IC50,NTCP,50.5 µM
"CC(C)=CCC[C@](C)(O)[C@H]1CC[C@]2(C)[C@@H]1[C@H](O)C[C@@H]1[C@@]3(C)CC[C@H](O)C(C)(C)[C@@H]3[C@@H](O[C@@H]3O[C@H](CO)[C@@H](O)[C@H](O)[C@H]3O[C@@H]3O[C@H](CO)[C@@H](O)[C@H](O)[C@H]3O)C[C@]12C [Compound C7, Ginsenoside Rf]",IC50,CYP2C19; [8],> 100 µM
same,IC50,CYP2B6; [9],> 100 µM
same,changes against these CYP and UGT enzymes,CYP and UGT enzymes,almost no changes
same,"fe-B,0–12h (fraction of dose excreted into bile)",[1],13.12 ± 1.68%
"CC(C)=CCC[C@](C)(O[C@@H]1O[C@H](CO)[C@@H](O)[C@H](O)[C@H]1O)[C@H]1CC[C@]2(C)[C@@H]1[C@H](O)C[C@@H]1[C@@]3(C)CC[C@H](O)C(C)(C)[C@@H]3[C@@H](O[C@@H]3O[C@H](CO)[C@@H](O)[C@H](O)[C@H]3O[C@@H]3O[C@@H](C)[C@H](O)[C@@H](O)[C@H]3O)C[C@]12C [Compound C9, Ginsenoside Re]",IC50,CYP2C19; [8],> 100 µM
same,IC50,CYP2B6; [9],> 100 µM
same,"fe-B,0–12h (fraction of dose excreted into bile)",[1],28.27 ± 4.16%
"CC(C)=CCC[C@](C)(O[C@@H]1O[C@H](CO)[C@@H](O)[C@H](O)[C@H]1O)[C@H]1CC[C@]2(C)[C@@H]1[C@H](O)C[C@@H]1[C@@]3(C)CC[C@H](O[C@@H]4O[C@H](CO)[C@@H](O)[C@H](O)[C@H]4O[C@@H]4O[C@H](CO)[C@@H](O)[C@H](O)[C@H]4O)C(C)(C)[C@@H]3CC[C@]12C [Compound D2, Ginsenoside Rd]",IC50,CYP2C19; [8],> 100 µM
same,inhibition type (smallest AIC and SC),CYP2B6; CYP2B6,Noncompetitive inhibition
same,Ki,"CYP2B6; CYP2B6, competitive model",10.2 ± 2.1 µM
same,Ki,"CYP2B6; CYP2B6, mixed-type model",36.3 ± 10.2 µM
same,α,"CYP2B6; CYP2B6, mixed-type model",1.0 ± 0.4
same,Ki,"CYP2B6; CYP2B6, noncompetitive model",37.2 ± 2.3 µM
same,Cmax/Ki ([I]/Ki),"CYP2B6; CYP2B6, selected model, rat plasma Cmax",0.02
same,IC50,"CYP2B6; bupropion 100 μM, read-out: IC50 against CYP2B6",20.2 µM
same,IC50,CYP2B6; [9],20.2 ± 12.4 µM
same,"fe-B,0–12h (fraction of dose excreted into bile)",[1],5.55% and 5.55 ± 1.02%
"CC(C)=CCC[C@](C)(O[C@@H]1O[C@H](CO[C@@H]2O[C@@H](CO)[C@H](O)[C@H]2O)[C@@H](O)[C@H](O)[C@H]1O)[C@H]1CC[C@]2(C)[C@@H]1[C@H](O)C[C@@H]1[C@@]3(C)CC[C@H](O[C@@H]4O[C@H](CO)[C@@H](O)[C@H](O)[C@H]4O[C@@H]4O[C@H](CO)[C@@H](O)[C@H](O)[C@H]4O)C(C)(C)[C@@H]3CC[C@]12C [Compound D3, Ginsenoside Rc]",IC50,CYP2C19; [8],> 100 µM
same,IC50,CYP2B6; [9],> 100 µM
same,detection in bile,[1],not detected in bile
"CC(C)=CCC[C@](C)(O[C@@H]1O[C@H](CO[C@@H]2O[C@H](CO)[C@@H](O)[C@H](O)[C@H]2O)[C@@H](O)[C@H](O)[C@H]1O)[C@H]1CC[C@]2(C)[C@@H]1[C@H](O)C[C@@H]1[C@@]3(C)CC[C@H](O[C@@H]4O[C@H](CO)[C@@H](O)[C@H](O)[C@H]4O[C@@H]4O[C@H](CO)[C@@H](O)[C@H](O)[C@H]4O)C(C)(C)[C@@H]3CC[C@]12C [Compound D5, Ginsenoside Rb1]",IC50,CYP2C19; [8],> 100 µM
same,IC50,CYP2B6; [9],> 100 µM
same,detection in bile,[1],not detected in bile
